Consider 1 substance from US7122523B2, “Methods for inhibiting tumor cell proliferation” (University of Southern California, priority 2001, dated 2006).

Entries after “also recorded” stand apart in the source; their conditions may differ.

A short description of this assay: Test of effectiveness of AII fragments (test not specified). The following applies: repeated tests.

For Tyr-Ile-His-Pro-Phe (YIHPF) [AII(4-8)], the “effectiveness as active agent” value was “not to be effective; also recorded: ineffective”.
